According to patent US20030237104A1 (priority 2002, published 2003):
Where two headings read alike, the source gives them in different places.

Key:
CB6F1-HRAS2 mice = conditions: in vivo
non-Tg mice (CB6F1) = conditions: mouse, in vivo
Salmonella = conditions: cited from earlier work
rasH2 mice = conditions: mouse, in vivo, ip; cited from earlier work
CB6F1-Tg-rasH2 mice = conditions: mouse, in vivo, ip, 75 mg/kg
[1] = CB6F1-HRAS2 and non-Tg CB6F1, mouse
[2] = CB6F1-HRAS2, mouse, sc, 15 mg/kg
[3] = CB6F1-HRAS2, mouse, ip, 60 mg/kg

For `[O-][n+]1ccc(NO)c2ccccc21` [4HAQO, 4-Hydroxyaminoquinoline-1-oxide], the “tumors in the exocrine portion of the pancreas” value (CB6F1-HRAS2 mice; [1]) was “Neither the 4HAQO-treated Tg nor the non-Tg mice developed tumors”, the “Malignant Tumors Tg” value (CB6F1-HRAS2 mice; mouse) was “++” and the “Rapid tumor response in Tg mice” value (CB6F1-HRAS2 mice; mouse) was “+”. For the same compound, the “Tumor incidence and/or multiplicity” value (CB6F1-HRAS2 mice; mouse) was “Tg > non-Tg”, the “forestomach and skin papillomas” value (CB6F1-HRAS2 mice; mouse) was “induced” and the “other tumors (e.g., leukemias and thymomas)” value (CB6F1-HRAS2 mice; mouse) was “observed only in the Tg mice”. For the same compound, the “Malignant Tumors Non-Tg” value (non-Tg mice (CB6F1)) was “+”, the “forestomach and skin papillomas” value (non-Tg mice (CB6F1)) was “hardly observed” and the “Genotoxicity (Salmonella)” value (Salmonella) was “+”.
For `O=[N+]([O-])c1cc[n+]([O-])c2ccccc12` [4NQO, 4-Nitroquinoline-1-oxide], the lung adenocarcinomas (CB6F1-HRAS2 mice; [2]) was “observed only in 4NQO-treated CB6F1-HRAS2 mice”, the “squamous cell carcinomas of skin” value (CB6F1-HRAS2 mice; [2]) was “observed only in 4NQO-treated CB6F1-HRAS2 mice” and the “mice bearing skin papillomas” value (CB6F1-HRAS2 mice; both, CB6F1-HRAS2, mouse, sc, 15 mg/kg) was “Approximately 90%”. For the same compound, the “Malignant Tumors Tg” value (CB6F1-HRAS2 mice; mouse) was “+”, the “Rapid tumor response in Tg mice” value (CB6F1-HRAS2 mice; mouse) was “+” and the “Tumor incidence and/or multiplicity” value (CB6F1-HRAS2 mice; mouse) was “Tg > non-Tg”. For the same compound, the “incidence of lung adenoma” value (CB6F1-HRAS2 mice; mouse, sc, 15 mg/kg) was “higher than that in corresponding non-Tg mice”, the “Malignant Tumors Non-Tg” value (non-Tg mice (CB6F1)) was “−” and the skin tumors (non-Tg mice (CB6F1); sc, 15 mg/kg) was “No skin tumors were observed”.
In the case of `O=P1(N(CCCl)CCCl)NCCCO1` (centres unmarked) [Cyclophosphamide], the “adenocarcinomas (lung)” value (CB6F1-HRAS2 mice; CB6F1-HRAS2, mouse) is reported as “observed only in one cyclophosphamide-treated male CB6F1-HRAS2 mouse”, the “Malignant Tumors Tg” value (CB6F1-HRAS2 mice; mouse) is reported as “+” and the “Tumor incidence and/or multiplicity” value (CB6F1-HRAS2 mice; mouse) is reported as “Tg ÷ non-Tg”. The “incidence and multiplicity of lung adenoma” value (“incidence and multiplicity” for short) (CB6F1-HRAS2 mice; mouse) was “not significantly higher”, the “incidence of lung adenoma” value (CB6F1-HRAS2 mice; mouse) was “not significantly different from that in corresponding non-Tg mice” and the lung tumors (CB6F1-HRAS2 mice; mouse) was “induced lung tumors”. For the same compound, the “tumors in other organs (bladder, mammary gland, lymphatic systems)” value (CB6F1-HRAS2 mice; mouse) was “No tumor was observed”, the “Malignant Tumors Non-Tg” value (non-Tg mice (CB6F1)) was “−” and the “Genotoxicity (Salmonella)” value (Salmonella) was “+”.
With `S=C1NCCN1` [Ethylene thiourea] the “incidence of thyroid adenocarcinoma” value (CB6F1-HRAS2 mice; female, CB6F1-HRAS2, mouse) was 9%, the thyroid adenomas incidence (CB6F1-HRAS2 mice; female, CB6F1-HRAS2, mouse) was 26% and the “Malignant Tumors Tg” value (CB6F1-HRAS2 mice; mouse) was “+”. The “Tumor incidence and/or multiplicity” value (CB6F1-HRAS2 mice; mouse) was “Tg ÷ non-Tg”, the thyroid tumors (CB6F1-HRAS2 mice; mouse) was “did not induce” and the “incidence of thyroid adenocarcinoma” value (non-Tg mice (CB6F1); female, CB6F1 (non-Tg)) was 4%. The thyroid adenomas incidence (non-Tg mice (CB6F1); female, CB6F1 (non-Tg)) was 20%, the “Malignant Tumors Non-Tg” value (non-Tg mice (CB6F1)) was “+” and the “Genotoxicity (Salmonella)” value (Salmonella) was “−”. For the same compound, the “Salmonella mutagenesis assay result” value (Salmonella) was “negative”.
For `C[N+]([O-])=NCO` [MAM, Methylazoxymethanol], the “Malignant Tumors Tg” value (CB6F1-HRAS2 mice; mouse) was “+”, the “Tumor incidence and/or multiplicity” value (CB6F1-HRAS2 mice; mouse) was “Tg > non-Tg^c” and the “incidence and multiplicity” value (CB6F1-HRAS2 mice; mouse) was “not significantly higher”. The lung adenoma incidence (CB6F1-HRAS2 mice; mouse, sc, 20 mg/kg) was “similar”, the “Malignant Tumors Non-Tg” value (non-Tg mice (CB6F1)) was “−” and the “Genotoxicity (Salmonella)” value (Salmonella) was “+”.
For `CN(N=O)C(N)=O` [MNU, N-Methyl-N-nitrosourea], the “forestomach squamous cell carcinoma” value (CB6F1-HRAS2 mice; CB6F1-HRAS2, mouse) was “seen only in MNU-treated CB6F1-HRAS2 mice”, the “Malignant Tumors Tg” value (CB6F1-HRAS2 mice; mouse) was “+” and the “Rapid tumor response in Tg mice” value (CB6F1-HRAS2 mice; mouse) was “+”. The “Tumor incidence and/or multiplicity” value (CB6F1-HRAS2 mice; mouse) was “Tg > non-Tg”, the forestomach papillomas (CB6F1-HRAS2 mice; mouse) was “high incidence” and the “incidence and multiplicity” value (CB6F1-HRAS2 mice; mouse) was “not significantly higher”. For the same compound, the “incidence of skin papilloma” value (CB6F1-HRAS2 mice; mouse) was “significantly high incidence”, the incidence of lymphoma (CB6F1-HRAS2 mice; mouse, 75 mg/kg) was “higher” and the “Malignant Tumors Non-Tg” value (non-Tg mice (CB6F1)) was “−”. The forestomach papillomas (non-Tg mice (CB6F1)) was “no papillomas”, the “skin papillomas and hyperplasias” value (non-Tg mice (CB6F1)) was “did not induce” and the “forestomach and skin papillomas” value (rasH2 mice) was “higher incidence”. For the same compound, the “Genotoxicity (Salmonella)” value (Salmonella) was “+”, the “incidences of forestomach tumor and malignant lymphoma among institutions” value (CB6F1-Tg-rasH2 mice) was “High and consistent incidences” and the “incidences of tumor (squamous cell tumor in forestomach, skin, vagina; Harderian gland carcinoma; lung adenomas; malignant lymphoma)” value (CB6F1-Tg-rasH2 mice) was “increased”.
In the case of `C=COC(N)=O` [Vinyl carbamate], the lung adenocarcinomas incidence (CB6F1-HRAS2 mice; [3]) is reported as 50%, the lung adenomas incidence (CB6F1-HRAS2 mice; [3]) is reported as 100% and the “mice bearing spleen hemangiosarcomas” value (CB6F1-HRAS2 mice; [3]) is reported as “Approximately 90%”. For the same compound, the liver tumors (CB6F1-HRAS2 mice; [1]) was “neither CB6F1-HRAS2 mice nor control non-Tg mice treated with these compounds developed liver tumors”, the “Malignant Tumors Tg” value (CB6F1-HRAS2 mice; mouse) was “++” and the “Rapid tumor response in Tg mice” value (CB6F1-HRAS2 mice; mouse) was “+”. For the same compound, the “Tumor incidence and/or multiplicity” value (CB6F1-HRAS2 mice; mouse) was “Tg > non-Tg”, the lung adenomas incidence (non-Tg mice (CB6F1); CB6F1 (non-Tg), ip, 60 mg/kg) was greater than 90% and the “Malignant Tumors Non-Tg” value (non-Tg mice (CB6F1)) was “+”. For the same compound, the “incidence of lung adenocarcinoma” value (non-Tg mice (CB6F1); ip, 60 mg/kg) was “much lower”, the spleen hemangiosarcomas (non-Tg mice (CB6F1); ip, 60 mg/kg) was “none developed” and the “tumor multiplication (lung adenomas)” value (non-Tg mice (CB6F1); ip, 60 mg/kg) was “lower”. For the same compound, the “Genotoxicity (Salmonella)” value (Salmonella) was “+”.
